The text below walks through data of patent US12083101B2, “Biaryl derivatives as YAP/TAZ-TEAD protein-protein interaction inhibitors” (Novartis AG, priority 2020, dated 2024).

In general, pIC50 refers to the IC50 on a negative log10 scale, so that one unit is a factor of ten. The GI50 is the concentration that inhibits growth by half. High values mean less potent growth inhibition, low ones more potent growth inhibition.

Test [1] concerns MKN-45/Ubc-luc cells. Put plainly: Reporter gene specificity control (Ubc-luciferase), MKN-45. To be noted: for pIC50: read-out: Reporter gene assay MKN-45 IC50, MKN-45/Ubc-luc cells (YAP deleted, specificity control), 24 hours incubation; for IC50: Homo sapiens, MKN-45, 24 h, read-out: Reporter gene assay MKN-45 IC50 [μM], MKN-45/Ubc-luc cells (YAP deleted, specificity control), 24 hours incubation.
Protocol: As a specificity control, MKN-45 cells were stably transduced with a Ubc-Luc reporter construct, in which constitutive expression of firefly luciferase is driven by the promoter of the ubiquitin C housekeeping gene.
Stock solutions of compounds were prepared at a concentration of 10 mM in DMSO and stored at 4° C. Where necessary to afford a full dose-response curve, the stock solutions were pre-diluted in DMSO to 1'000-fold the desired reduced start concentration. On the day after cell seeding, eleven 2-fold serial dilutions of each compound were dispensed directly into the cell assay plates using a HP 300D non-contact Digital Dispenser (TECAN, Mannedorf, Switzerland). The final concentration of DMSO was normalized to 0.1% in all wells.
The ability of compounds to inhibit YAP-dependent transcription was assessed in NCI-H2052 Tet-On shYAP_2371 pLenti6 MCAT_Luc cells, while specificity (lack of unspecific inhibition of luciferase expression of activity) was assessed in MKN-45/Ubc-luc cells. […] Following incubation for 24 hours at 37° C., compound-mediated modulation of reporter-gene activity was quantified 5 min after addition of 20 μl BrightGlo (Promega, Cat #E2620), by measuring luminescence intensity on a multi-mode plate-reader (TECAN, Männedorf, Switzerland, Integration time 100 ms). For data analysis, the assay background value determined in wells containing medium, but no cells, was subtracted from all data points. Dose-dependent compound effects were expressed as % of vehicle-treated control (luminescence signal produced by cells receiving DMSO only) and IC50s calculated using a four-parametric fit model.

Test [2] addresses His-humanTEAD4 217-434 / N-biotinylated YAP 60-100 (Homo sapiens (Human), UniProt Q15561). As to the kind of experiment: TR-FRET YAP-TEAD4 biochemical assay, alternative format. Type of test: binding. Particulars: alternative format, marked with star *); 5 nM His-humanTEAD4 217-434, 10 nM N-biotinylated YAP 60-100. As for the experimental part:
[…] Compounds were dissolved at 10 mM in 100% DMSO and serial dilutions were made in 100% DMSO. The diluted compound solutions were incubated in white 384-well plates (Greiner Bio-One) for 1 h at room temperature with the above described mix. The final DMSO concentration present in the assay was 1%. […] The IC50 values were estimated by fitting the data by nonlinear fit regression (GraphPad Prism).
Background: TR-FRET usually uses a lanthanide donor and a delayed reading to cut background.

Test [3] relates to NCI-H2052 Tet-On shYAP_2371 pLenti6 MCAT_Luc cells (YAP-dependent transcription). As to the kind of experiment: YAP reporter gene activity assay (MCAT-luciferase), NCI-H2052. Type of test: cell-based. Particulars: 24 hours incubation, BrightGlo luminescence. The gist of the method:
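Luminescence was read 5 min after BrightGlo, following 24 h at 37 °C of compound exposure (eleven 2-fold dilutions, DMSO normalized to 0.1%). Cells were NCI-H2052 with a YAP-responsive MCAT-luciferase and a Tet-inducible shRNA against YAP1 3′UTR. Cell-free background was removed, values were normalized to vehicle, and IC50 was fitted with four parameters.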
Background: A reporter such as luciferase makes a cellular process visible.

The test system of test [4] is MKN-45/Ubc-luc cells. As to the kind of experiment: Proliferation assay (resazurin), MKN-45. Type of test: cell-based. To be noted: 72 hours incubation.
The subject of test [5] is NCI-H2052 Tet-On shYAP_2371 pLenti6 MCAT_Luc cells. Put plainly: Proliferation assay (resazurin), NCI-H2052. The test is classed as cell-based. Particulars: 72 hours incubation. The gist of the method:
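The NCI-H2052 line carries a Tet-inducible shRNA against the YAP1 3′UTR and an MCAT luciferase reporter. The day after seeding, it received eleven 2-fold compound dilutions at 0.1% DMSO, and viability was read by resazurin fluorescence.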
On the technique in general: Alamar Blue is a resazurin reagent that responds to reducing activity.

Test [6] concerns the target Avi-humanTEAD4 217-434 / Cy5 labeled humanYAP 60-100 (Homo sapiens (Human), UniProt Q15561). Put plainly: TR-FRET YAP-TEAD4 in-vitro biochemical assay. The test is classed as binding. Particulars: 1 nM Avi-humanTEAD4 217-434, 20 nM Cy5-humanYAP 60-100, 1 h room temperature.

pIC50: −log10 of the molar value. Read-outs that look alike come from different tables or passages of the source.

Sequence of Avi-humanTEAD4 217-434 / Cy5 labeled humanYAP 60-100 (Q15561 217-434): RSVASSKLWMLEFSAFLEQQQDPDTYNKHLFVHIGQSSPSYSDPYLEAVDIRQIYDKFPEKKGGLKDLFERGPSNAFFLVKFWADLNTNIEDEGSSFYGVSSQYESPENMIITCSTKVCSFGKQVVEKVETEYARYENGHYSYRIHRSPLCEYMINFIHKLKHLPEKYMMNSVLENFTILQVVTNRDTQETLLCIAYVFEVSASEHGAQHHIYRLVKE
Sequence of His-humanTEAD4 217-434 / N-biotinylated YAP 60-100 (Q15561 217-434): as above

Take `NC(=O)c1cccc(F)c1-c1c(Cl)ccc2c1C[C@@](CN[C@H]1CC[C@H](C(N)=O)CC1)(c1ccccc1)O2` (relative stereo) [Example 138a, 2-((2S,4S)-2-((((Trans)-4-carbamoylcyclohexyl)amino)methyl)-5-chloro-2-phenyl-2,3-dihydrobenzofuran-4-yl)-3-fluorobenzamide]: the pIC50 is less than 4.70 in test [1], 7.74 in test [2] and 6.62 in test [3]. Also, the figures for the GI50 in test [4] and in test [5] were more than 13300 nM and 366 nM, respectively.
Take `NC(=O)c1cccc(F)c1-c1c(Cl)ccc2c1C[C@@](CN[C@H]1CC[C@@H](C(N)=O)CC1)(c1ccccc1)O2` (relative stereo) [Example 138b, 2-((2S,4S)-2-((((cis)-4-carbamoylcyclohexyl)amino)methyl)-5-chloro-2-phenyl-2,3-dihydrobenzofuran-4-yl)-3-fluorobenzamide]: the negative logarithm of the IC50 (pIC50) in test [1] is 5.12; in test [2], 7.74; in test [3], 6.66. Besides, the 50% growth inhibitory concentration (GI50) is more than 10000 nM in test [4] and 435 nM in test [5].
As for `NC[C@@]1(c2ccccc2)Cc2c(cc(F)c(Cl)c2-c2c(F)cccc2C(N)=O)O1` [Example 32a, 2-((2S,4S)-2-(Aminomethyl)-5-chloro-6-fluoro-2-phenyl-2,3-dihydrobenzofuran-4-yl)-3-fluorobenzamide], the IC50 in test [1] was more than 10 µM. Besides, the pIC50 in test [2] was 7.48; in test [3] (Homo sapiens, NCI-H2052, 24 h) it was 6.30. For the same compound, the GI50 turned out to be 6120 nM in test [4] (Homo sapiens) and 833 nM in test [5] (Homo sapiens, NCI-H2052, 72 h).
For the compound `COc1ccc(C(N)=O)c(-c2c(Cl)ccc3c2C[C@](c2ccccc2)(C(C)N)O3)c1F` (stereo partly drawn) [Example 168, 2-((2S,4S)-2-(1-Aminoethyl)-5-chloro-2-phenyl-2,3-dihydrobenzofuran-4-yl)-3-fluoro-4-methoxybenzamide], the negative logarithm of the IC50 (pIC50) in test [6] was 7.92; in test [3] (Homo sapiens, NCI-H2052, 24 h), 6.60. The IC50 in test [1] was more than 10 µM. Also, the GI50 in test [4] (Homo sapiens) is more than 10000 nM; in test [5] (Homo sapiens, NCI-H2052, 72 h), 267 nM.
With `COCCOc1ccc(C(N)=O)c(-c2c(Cl)c(F)cc3c2[C@H](C)[C@](c2ccccc2)(C(C)N)O3)c1F` (stereo partly drawn) [Example 169, 2-((2S,3S,4S)-2-(1-Aminoethyl)-5-chloro-6-fluoro-3-methyl-2-phenyl-2,3-dihydrobenzofuran-4-yl)-3-fluoro-4-(2-methoxyethoxy)benzamide], the pIC50 in test [6] was 8.15; in test [3] (Homo sapiens, NCI-H2052, 24 h), 6.82. In test [1], the IC50 is more than 10 µM. Moreover, the GI50 in test [4] (Homo sapiens) is 7830 nM; in test [5] (Homo sapiens, NCI-H2052, 72 h), 246 nM.
With `COc1ccc(C(N)=O)c(-c2c(Cl)c(F)cc3c2C[C@](c2ccccc2)([C@@H]2CCCN2)O3)c1F` [Example 174, 2-((2S,4S)-5-Chloro-6-fluoro-2-phenyl-2-((S)-pyrrolidin-2-yl)-2,3-dihydrobenzofuran-4-yl)-3-fluoro-4-methoxybenzamide], the pIC50 in test [6] is 8.52; in test [1] it was 4.92; in test [3], 7.43. The figures for the GI50 in test [4] and in test [5] were 11000 nM and 21 nM, respectively.
As to `CNC(=O)c1ccc(OC)c(F)c1-c1c(Cl)c(F)cc2c1C[C@](c1ccccc1)([C@@H]1CCCN1)O2` [Example 175, 2-((2S,4S)-5-Chloro-6-fluoro-2-phenyl-2-((S)-pyrrolidin-2-yl)-2,3-dihydrobenzofuran-4-yl)-3-fluoro-4-methoxy-N-methylbenzamide], the pIC50 in test [6] was 8.40; in test [1], 4.89; in test [3], 7.21. Besides, the GI50 in test [4] came to 7000 nM; in test [5], 50 nM.
Take `COc1ccc(C(N)=O)c(-c2c(Cl)c(F)cc3c2[C@H](C)[C@@](CN)(c2ccccc2)O3)c1F` [Example 176, 2-((2S,3S,4S)-2-(Aminomethyl)-5-chloro-6-fluoro-3-methyl-2-phenyl-2,3-dihydrobenzofuran-4-yl)-3-fluoro-4-methoxybenzamide]: the negative logarithm of the IC50 (pIC50) in test [6] is 8.52; in test [1] it was 4.96; in test [3] it was 7.74. Besides, the 50% growth inhibitory concentration (GI50) in test [4] was 16000 nM; in test [5] it was 21 nM.
